For this assay, the target named is T1, PBP2 from Neisseria gonorrhoeae (FA19) (Neisseria gonorrhoeae, UniProt P08149).
T1 construct: made in house
Briefly: Bocillin-FL fluorescence polarization competition binding, N. gonorrhoeae PBP2. The note with it: fluorescence polarization competition binding assay using Bocillin-FL, read-out: N. gonorrhoeae PBP2 Potency. The gist of the method: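 Fluorescence polarization competition with 0.1 μM Bocillin-FL (fluorescent penicillin V) against 0.25 μM N. gonorrhoeae FA19 PBP2 in 50 mM Hepes pH 8.0, 300 mM NaCl, 10% glycerol. Boronic acid inhibitors were preincubated with PBP, then Bocillin-FL was added and FP read (490/520 nm) up to 60 min. EC50 is the concentration halving PBP-bound Bocillin-FL.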

Molecules are shown by their SMILES.

T1 sequence (P08149 whole entry): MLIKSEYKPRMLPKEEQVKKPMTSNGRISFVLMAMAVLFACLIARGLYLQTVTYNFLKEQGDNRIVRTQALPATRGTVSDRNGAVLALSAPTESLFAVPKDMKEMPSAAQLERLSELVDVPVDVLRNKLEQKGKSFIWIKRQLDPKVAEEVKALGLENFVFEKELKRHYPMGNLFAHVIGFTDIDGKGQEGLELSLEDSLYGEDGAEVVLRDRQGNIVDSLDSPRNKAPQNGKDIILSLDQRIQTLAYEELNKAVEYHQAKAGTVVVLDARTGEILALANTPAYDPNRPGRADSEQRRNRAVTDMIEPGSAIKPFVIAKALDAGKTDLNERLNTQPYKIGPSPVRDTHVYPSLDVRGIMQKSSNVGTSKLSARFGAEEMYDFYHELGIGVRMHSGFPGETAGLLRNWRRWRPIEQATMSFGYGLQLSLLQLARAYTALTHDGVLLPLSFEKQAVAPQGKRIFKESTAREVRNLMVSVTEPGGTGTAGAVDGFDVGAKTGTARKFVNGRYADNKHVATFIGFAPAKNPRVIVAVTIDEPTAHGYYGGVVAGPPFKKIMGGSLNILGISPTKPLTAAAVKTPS

Regarding `CCN1CCN(C(=O)NC(C(=O)N[C@H]2Cc3cccc(C(=O)O)c3OB2O)c2ccc(P(=O)(O)O)c(F)c2O)C(=O)C1=O` (stereo partly drawn) [Example 198, (3R)-3-(2-(4-ethyl-2,3-dioxopiperazine-1-carboxamido)-2-(3-fluoro-2-hydroxy-4-phosphonophenyl)acetamido)-2-hydroxy-3,4-dihydro-2H-benzo[e][1,2]oxaborinine-8-carboxylic acid], the EC50 was less than 10 µM.

For the origin of these results see patent US20240270762A1, “PENICILLIN-BINDING PROTEIN INHIBITORS” (priority 2021, published 2024).
